Laboratory results published in patent publication US20110150817A1, “FRESHENING COMPOSITIONS COMPRISING MALODOR BINDING POLYMERS AND MALODOR CONTROL COMPONENTS” (priority 2009, published 2011).
Read-outs that look alike come from different tables or passages of the source.

Tests used:
[1] = acid catalysts, as reported by Scifinder; cited from earlier work
[2] = Vapor pressure at 25° C.; type: physicochemical
Method: Suitable acid catalysts have a VP, as reported by Scifinder, in the range of about 0.001 torr to about 38 torr, measured at 25° C., alternatively about 0.001 torr to about 14 torr, alternatively from about 0.001 to about 1, alternatively from about 0.001 to about 0.020, alternatively about 0.005 to about 0.020, alternatively about 0.010 to about 0.020.

[3] = Effect of volatile aldehydes on sulfur-based malodor (headspace GC/MS); details: 30 minutes at room temperature, 1 μL aldehyde in 10 mL headspace vial
Method: A 1 μL sample of each volatile aldehyde listed in Table 6 and each Accord (A, B, and C) listed in Tables 1 to 3 is pipeted into individual 10 mL silanized headspace vials. […] Repeat 4 times for each sample (2 for butylamine analysis and 2 for butanethiol analysis). […]

[4] = Effect of volatile aldehydes on amine-based malodor (headspace GC/MS); details: 1 μL aldehyde in 10 mL headspace vial
Method: A 1 μL sample of each volatile aldehyde listed in Table 6 and each Accord (A, B, and C) listed in Tables 1 to 3 is pipeted into individual 10 mL silanized headspace vials. […] Repeat 4 times for each sample (2 for butylamine analysis and 2 for butanethiol analysis).
For amine analysis, the samples are injected immediately into the system after the malodor is introduced.

Cc1ccc(C(=O)O)s1 [5-Methyl thiophene carboxylic acid]
VP (torr) @25° C. [1]: 0.019 torr

CC(=O)O [Acetic Acid]
VP (torr) @25° C. [1]: 13.9 torr

O=C(O)c1ccccc1 [Benzoic acid]
VP (torr) @25° C. [1]: 0.014 torr

CCCCCCCC(=O)O [Caprylic acid]
VP (torr) @25° C. [1]: 0.0222 torr

CCc1ccc(CC(C)(C)C=O)cc1 [Floralozone, para-ethyl-alpha,alpha-dimethyl Hydrocinnamaldehyde]
VP (torr) @25° C. ([2]; Table 2, materials of Accord B): 0.005 torr | VP (torr) @25° C. ([2]; Table 3, materials of Accord C): 0.005 torr | At least 20% butanethiol reduction at 30 minutes? [3]: No | At least 20% butylamine reduction at 40 seconds? [4]: No

CC(C)c1cccc(C(C)CC=O)c1 (centres unmarked) [Florhydral, 3-(3-Isopropyl-phenyl)-butyraldehyde]
VP (torr) @25° C. ([2]; Table 1, materials of Accord A): 0.008 torr | VP (torr) @25° C. ([2]; Table 2, materials of Accord B): 0.008 torr | VP (torr) @25° C. ([2]; Table 3, materials of Accord C): 0.008 torr | At least 20% butanethiol reduction at 30 minutes? [3]: Yes | At least 20% butylamine reduction at 40 seconds? [4]: Yes

O=CO [Formic Acid]
VP (torr) @25° C. [1]: 36.5 torr

CC(C=O)Cc1ccc2c(c1)OCO2 (stereo not drawn) [Helional, alpha-methyl-3,4-(methylenedioxy)-hydrocinnamaldehyde]
VP (torr) @25° C. ([2]; Table 3, materials of Accord C): 0.0005 torr | At least 20% butanethiol reduction at 30 minutes? [3]: No | At least 20% butylamine reduction at 40 seconds? [4]: Yes

CC(C)=CCCC(C)C=O (centres unmarked) [Melonal, 2,6-Dimethyl-5-Heptenal]
VP (torr) @25° C. ([2]; Table 2, materials of Accord B): 0.670 torr | VP (torr) @25° C. ([2]; Table 3, materials of Accord C): 0.670 torr | At least 20% butanethiol reduction at 30 minutes? [3]: No | At least 20% butylamine reduction at 40 seconds? [4]: Yes

Cc1cc(C)cc(C(=O)O)c1 [Mesitylenic acid]
VP (torr) @25° C. [1]: 0.00211 torr

CCCCCCCCCC(C)C=O (centres unmarked) [Methyl Nonyl Acetaldehyde, 2-methyl-1-undecanal]
VP (torr) @25° C. ([2]; Table 2, materials of Accord B): 0.030 torr | VP (torr) @25° C. ([2]; Table 3, materials of Accord C): 0.030 torr | At least 20% butanethiol reduction at 30 minutes? [3]: No | At least 20% butylamine reduction at 40 seconds? [4]: No

Oc1ccccc1 [Phenol]
VP (torr) @25° C. [1]: 0.610 torr

O=C(O)CCC(=O)O [Succinic acid]
VP (torr) @25° C. [1]: 0.0165 torr

C/C=C(\C)C(=O)O [Tiglic acid]
VP (torr) @25° C. [1]: 0.152 torr

CC(C)(C)C(=O)O [Trimethyl Acetic Acid]
VP (torr) @25° C. [1]: 0.907 torr

COc1ccccc1C=O [o-anisaldehyde]
VP (torr) @25° C. ([2]; Table 1, materials of Accord A): 0.032 torr | VP (torr) @25° C. ([2]; Table 2, materials of Accord B): 0.032 torr | VP (torr) @25° C. ([2]; Table 3, materials of Accord C): 0.320 torr | At least 20% butanethiol reduction at 30 minutes? [3]: Yes | At least 20% butylamine reduction at 40 seconds? [4]: Yes
